US8207136B2, “Nucleoside compounds and methods of use thereof” (The Board of Trustees of the University of Illinois, priority 2005, dated 2012)

Legend:
Akt = Akt Ser473 phosphorylation immunoblot in mAkt-overexpressing cells; assay type: cell-based; settings: Rat1a-mAkt and MCF7-mAkt cells, 24 hours
Procedure: FIG. 9. ARC interferes with the Akt pathway by inhibiting phosphorylation of Akt. Rat1a and MCF-7 cells overexpressing myristoylated-Akt (mAkt) were treated with the indicated concentration of ARC for 24 hours, after which the cell lysates were used for immunoblotting with total and phospho-Ser473 specific Akt antibodies.
Another survival pathway that protects mitochondrial integrity is the Akt (AKT8 virus oncogene cellular homolog) pathway. In order to see if this pathway is affected, two different cell lines that overexpress myrisotylated-Akt (Rat1a-mAkt, and MCF7-mAkt) were used. Myristolated-Akt is a membrane-targeted Akt, a kinase involved in anti-apoptotic signaling.

RNA polymerase II = target: T1, RNA polymerase II (Homo sapiens, UniProt P24928); experiment: Nuclear run-on assay, nuclei isolated from untreated HCT-116 cells then treated; assay type: biochemical; settings: 50 μM ARC, 50 μM DRB or 2 μg/ml α-amanitin
T1 construct: nuclei were isolated from normally growing untreated HCT-116 cells and treated with each of these agents; endogenous in cells; host or cells: nuclei of HCT-116 colon cancer cells
Procedure: (§1) Run-on assays with isolated nuclei were performed as described. Briefly, cells treated with the indicated agents were lysed with hypotonic buffer (10 mM Tris-HCl pH 7.4, 10 mM NaCl and 35 mM MgCl2) and nuclei collected by centrifugation and resuspended in nuclear storage buffer (50 mM HEPES pH 8.0, 5 mM MgCl2, 0.5 mM DTT, 1 mg/ml BSA and 25% (v/v) glycerol) at about 5×10^8 nuclei/ml and stored at −80° C. Transcription reactions were performed in 200 μl volume consisting of 1×10^7 nuclei in the presence of 0.12 M KCl, 7 mM Mg(Ac)2, 25 μCi of [^32P]GTP, 500 μM ATP, UTP and CTP at 30° C. Samples were collected at various time points (18 μl/time point—0, 5, 10, 20 and 30 min) and the reaction terminated by the addition of 57 μl of Sarkosyl solution (1% Sarkosyl, 0.1 M Tris pH 8.0, 0.1 M NaCl, 10 mM EDTA and 200 μg/ml tRNA). The stopped reactions were transferred to Whatman DE81 paper, and washed four times with wash buffer (5% K2HPO4 and 0.3% Na4P2O7) for 10 min, followed by a 5-min water wash. Then the paper was briefly rinsed with 95% ethanol and allowed to dry completely. Radiation was quantitated using a liquid scintillation counter.
In order to evaluate the ability of ARC to bind to and inhibit RNA polymerase II directly (like α-amanitin) or indirectly (like DRB), nuclei were isolated from normally growing untreated HCT-116 cells and treated with each of these agents, and then assayed for rate of transcription by nuclear run-on assay.

[1] = system: LIM1215 colon cancer cells; experiment: Apoptosis by PI staining and flow cytometry in LIM1215 cells; assay type: cell-based, human
Procedure: For Flow Cytometry, cells were fixed in 70% ethanol and stored at −20° C. until further analysis. Equal numbers of fixed cells were then stained with PI solution (0.1% Triton X-100, 0.2 mg/ml DNase free RNase, 0.02 mg/ml propidium iodide) made in PBS for 15 min at 37° C. and analyzed by a flow cytometer.
In order to evaluate the extent to which ARC induces apoptosis relative to that of the other known nucleoside analog DRB, LIM1215 colon cancer cells were treated with either ARC or DRB for 48 hours.

[2] = system: RNA polymerase II transcription; experiment: Nuclear run-on assay, nuclei from treated HCT-116 cells; assay type: cell-based, human; settings: HCT-116 cells treated 2 hours with 1 mM
Procedure: as §1
Some transcriptional inhibitors such as DRB and flavopiridol repress p21 and hdm2 while increasing p53 levels. […] To evaluate this activity, HCT-116 cells were treated with one of DMSO (control), ARC or DRB, and nuclei were isolated. These nuclei were assayed for rate of transcription either in the presence or absence of α-amanitin using the nuclear run-on assay. […] If ARC inhibits polymerase I and III transcription, the rate of transcription should be substantially lower in the ARC+α-amanitin (FIG. 2A; curve 5) when compared with DMSO+α-amanitin (FIG. 2A; curve 4). However both of these rates of transcription were similar, implying that ARC might preferentially affect only RNA polymerase II transcription.

p53, p21, hdm2, survivin = experiment: Immunoblot of p53, p21, hdm2 and survivin levels in cancer cell lines; assay type: cell-based, human
Procedure: Immunoblotting was performed as described with antibodies specific for p53 (sc-126 HRP; Santa Cruz), hdm2 (sc-965; Santa Cruz), p21 (556431; BD Pharmingen), Sp1 (sc-59; Santa Cruz), survivin (sc-10811; Santa Cruz), phospho RNA polymerase II (4735; Cell Signaling), total RNA polymerase II (8WG16; a gift from Dr. Schlegel, University of Illinois at Chicago), α-tubulin (T9026; Sigma), cleaved caspase-3 (9664; Cell Signaling), caspase-9 (9502; Cell Signaling) and β-actin (A5441; Sigma) antibodies.
In order to find small molecule transcriptional inhibitors of p21, we generated LIM1215 colon cancer cells, carrying lacZ under the control of p21 promoter, as a screening system for testing ˜2000 structurally diverse compounds (Diversity Set) obtained from National Cancer Institute (NCI). […] To determine if these effects mediated by ARC were dose-dependent, we treated HCT-116 colon carcinoma cells with different concentrations of ARC.
In order to evaluate the extent to which the ARC-mediated repression of p21, hdm2 and survivin are p53-dependent, a pair of isogenic colon cancer cell lines was employed differing only in their p53 status—HCT-116 wild-type and HCT-116-p53^−/− cells (gift from Dr. Bert Vogelstein).

[3] = system: HIV Tat-mediated transcription; experiment: HIV Tat-mediated transcription in HeLa MAGI cells; assay type: cell-based, human immunodeficiency virus (HIV); settings: 18 hours
Procedure: FIG. 10. ARC has antiviral activity against HIV (human immunodeficiency virus) in a cell culture model. HeLa MAGI cells were infected with Adeno-Tat and treated with different amounts of ARC for 18 hours after which, MTT was added to measure cell viability and B-Gal expression was measured by ONPG assay. B-Gal expression is indicative of HIV Tat transactivation ability. Assays were done in quadruplicates.

[4] = cancer cell lines of different origin, 10 μM, 24 hours

Question: Which “Ser473 phosphorylation on Akt” value (Akt) does the source give for `NNc1c(C(N)=O)c2c(N)ncnc2n1[C@@H]1O[C@H](CO)[C@@H](O)[C@H]1O` [ARC, 4-amino-6-hydrazino-7-beta-D-ribofuranosyl-7H-pyrrolo[2,3-d]-pyrimidine-5-carboxamide] here?
Answer: decrease in Ser473 phosphorylation on Akt

Question: What about the “rate of transcription, agent added to isolated nuclei” value (RNA polymerase II) of the same compound?
Answer: did not affect the rate of transcription

Question: And the “apoptosis (PI staining, flow cytometry)” value ([1]; 5 μM, 48 hours)?
Answer: 37.8%

Question: What about the “efficiency in inducing apoptosis relative to DRB” value ([1]; LIM1215 cells (FIG. 5F)) of the same compound?
Answer: > 10 fold

Question: What about the “rate of transcription versus control nuclei” value [2] of the same compound?
Answer: lower

Question: What about the “rate of transcription in the presence of α-amanitin versus DMSO+α-amanitin” value ([2]; 2 μg/ml α-amanitin) of the same compound?
Answer: similar

Question: And the “p21, hdm2 and survivin levels, p53 dependence” value (p53, p21, hdm2, survivin; HCT-116-p53+/+ versus HCT-116-p53−/− cells)?
Answer: repressed irrespective of their p53 status

Question: What about the “p53, p21 and hdm2 levels, dose dependence” value (p53, p21, hdm2, survivin; HCT-116 colon carcinoma cells, increasing amounts, 24 hours) of the same compound?
Answer: increased p53 but simultaneously repressed its target genes p21 and hdm2 in a dose-dependent manner

Question: And the “p53 levels in nuclear extracts” value (p53, p21, hdm2, survivin; MCF-7 cells, ARC alone)?
Answer: highly induced

Question: And the hdm2 levels (p53, p21, hdm2, survivin; [4])?
Answer: downregulate hdm2

Question: What about the p21 levels (p53, p21, hdm2, survivin; [4]) of the same compound?
Answer: repress p21 levels

Question: And the p53 levels (p53, p21, hdm2, survivin; [4])?
Answer: increased p53 levels

Question: What about the survivin levels (p53, p21, hdm2, survivin; [4]) of the same compound?
Answer: downregulate

Question: What about the “HIV Tat-mediated transcription (B-Gal expression)” value ([3]; HeLa MAGI cells infected with Adeno-Tat) of the same compound?
Answer: efficiently inhibited HIV Tat-mediated transcription in a dose-dependent manner

Question: And the “rate of transcription versus cell viability (MTT)” value ([3]; HeLa MAGI cells)?
Answer: affected more than the viability of cells
